Common to all, as to test: growth of human tumour cells (NCI), 48 h
Experiment [1] has as its system CAKI-1 renal.
Experiment [2] relates to SF-295 CNS.
The test system of experiment [3] is HOP-92 NSCLC.
Experiment [4] has as its system OVCAR-8 ovarian.
The subject of experiment [5] is ACHN renal.
Experiment [6] relates to MDA-N.
Experiment [7] concerns HOP-62 NSCLC.
In experiment [8] the test system is MDA-MB-231 breast.
The subject of experiment [9] is SK-MEL-5 melanoma.
Experiment [10] concerns SF-268 CNS.

The structures appear in SMILES notation.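 Step 1: Grow cells in 96-well plates. Step 2: Expose to compound for 48 hours at 5 concentrations. Step 3: Interpolate endpoints linearly; if unreached, use highest concentration. GI50 marks 50% less growth. TGI denotes the concentration required for complete inhibition of growth.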

Turning to `OCc1ccc2c(c1)CC1(Cc3ccccc3C1)C2`, the TGI was 50.5 µM in experiment [1]; 40.6 µM in experiment [2]; 38 µM in experiment [3]; greater than 100 µM in experiment [4]; 57.7 µM in experiment [5]; 20 µM in experiment [6]. Moreover, the TGI in experiment [7] is greater than 100 µM; in experiment [8], 27.4 µM; in experiment [9], 23.6 µM; in experiment [10] it was 40.9 µM.

As for `CCOC(=O)c1ccc2nc3n(c2c1)C(c1c(F)cccc1F)SC3` (stereo unspecified), the TGI in [1], in experiment [2], in experiment [3], in [4], in [5] and in [6] was greater than 100 µM in each case. Besides, the TGI in experiment [7], in experiment [8], in experiment [9] and in experiment [10] was greater than 100 µM throughout.

In the case of `C[Si](C)(C)OC1(C#N)c2ccccc2CCCC12CCCC2` (stereo unspecified), the TGI in experiment [1] is greater than 100 µM; in experiment [2], greater than 100 µM; in experiment [3], 89.9 µM; in experiment [4], greater than 100 µM; in experiment [5], greater than 100 µM; in experiment [6], greater than 100 µM. Besides, the TGI in [7] is greater than 100 µM; in [8], greater than 100 µM; in experiment [9] it was 56.2 µM; in [10], greater than 100 µM.

Regarding `O=C(CC(=O)N1N=C(c2ccccc2)C(N=Nc2ccc(S(=O)(=O)CCOS(=O)(=O)O)cc2)C1=O)Nc1ccc(Cl)cc1` (stereo unspecified), the TGI in experiment [1], in [2], in experiment [3], in experiment [4], in experiment [5] and in [6] was greater than 100 µM in each case. For the same compound, the TGI in experiment [7], in [8], in experiment [9] and in experiment [10] was greater than 100 µM in each case.

With `COC1C(O)C(C)OC(O[C@H]2CC[C@@]3(C)C(CC[C@@H]4[C@@H]3CC[C@]3(C)[C@@H](C(C)OC5OC(CO)C(O)C(O)C5O)CC[C@]43O)C2)C1O` (stereo partly specified), the TGI in experiment [1], in [2], in experiment [3], in [4], in experiment [5] and in [6] was greater than 25 µM in each case. In addition, the TGI in experiment [7], in experiment [8], in experiment [9] and in experiment [10] was greater than 25 µM each time.

With `O=c1oc2ccccc2c(O)c1C(c1ccc(OCc2ccccc2)cc1)c1c(O)c2ccccc2oc1=O`, the TGI in [1] was 81.2 µM; in experiment [2], greater than 100 µM; in experiment [3], 91.6 µM; in experiment [4] it was greater than 100 µM; in experiment [5] it was 47.9 µM; in experiment [6], 59.4 µM. In addition, the TGI in [7] is greater than 100 µM; in experiment [8] it was 69.2 µM; in [9], 60.1 µM; in [10], greater than 100 µM.

With `NC(=Nc1ccccc1)N/N=C/c1c[nH]c2ccccc12`, the TGI in [1] was determined as 22.9 µM; in [2], 0.423 µM; in experiment [3], 6.01 µM; in experiment [4] it was 3.98 µM; in experiment [5], 16.1 µM; in experiment [6], 0.0405 µM. The TGI in experiment [7] amounted to 9.47 µM; in experiment [8] it was 6.83 µM; in experiment [9], 1.85 µM; in experiment [10], 15 µM.

As for `COC(=O)NC(Cc1ccccc1)NC(=O)OC(C)(C)C` (stereo unspecified), the TGI in experiment [1], in experiment [2], in experiment [3], in [4], in experiment [5] and in experiment [6] was greater than 100 µM each time. For the same compound, the TGI in experiment [7], in experiment [8], in experiment [9] and in [10] was greater than 100 µM in each case.

As for `CC(=O)NC1C(OCc2ccccc2)OC(CO)C(O)C1OC(C)C(=O)NC(C(=O)NC(CCC(=O)NCCCNc1ccc([N+](=O)[O-])c2[nH]c3ccccc3c(=O)c12)C(N)=O)C(C)C` (stereo unspecified), the TGI in [1], in experiment [2], in experiment [3], in [4], in experiment [5] and in [6] was greater than 100 µM throughout. The TGI in experiment [7], in experiment [8], in experiment [9] and in experiment [10] was greater than 100 µM in each case.

As to `CC1(C)CCC2=C(O1)c1ccccc1C(=Nc1ccc([N+](=O)[O-])cc1)C2=O`, the TGI was 32.2 µM in [1]; 29.9 µM in experiment [2]; greater than 100 µM in experiment [3]; greater than 100 µM in [4]; 25.5 µM in experiment [5]; 28.1 µM in experiment [6]. In addition, the TGI is 34.1 µM in [7], 43.2 µM in [8], 30.3 µM in experiment [9] and greater than 100 µM in [10]. The GI50 in [2] was 14.9 µM.

For `N=C1C=CC(=C(c2ccc(N)cc2)c2ccc(N)cc2)C=C1`, the TGI in [1] came out at 58.1 µM; in experiment [2], 21.4 µM; in experiment [3] it was 12.7 µM; in [4], 15.9 µM; in experiment [5], 31.2 µM; in experiment [6], 30.3 µM. The TGI in [7] was 16.8 µM; in [8] it was 32.5 µM; in experiment [9], 9.5 µM; in experiment [10], 14.9 µM.

As for `Clc1nc2nc(N3CCNCC3)nc(N3CCCC3)c2[nH]1`, the TGI was greater than 100 µM in [1]; 38.2 µM in experiment [2]; 37.2 µM in experiment [3]; 30.3 µM in experiment [4]; 37.7 µM in experiment [5]; 32.1 µM in [6]. Further, the TGI came to 36.2 µM in [7], 31.8 µM in experiment [8], 28.8 µM in [9] and 40.4 µM in [10].

For `CCOC(=O)c1nc2ccccc2nc1Nc1ccc(C(=O)OC)s1`, the TGI in [1], in [2], in [3], in experiment [4], in experiment [5] and in experiment [6] was greater than 100 µM throughout. For the same compound, the TGI in [7], in experiment [8], in experiment [9] and in [10] was greater than 100 µM in each case.

On to `CCOP(=O)(OCC)C(Nc1ccc(Cl)cc1)c1ccc(F)cc1` (stereo unspecified), for which the TGI in experiment [1] is 83.6 µM; in experiment [2], 44.8 µM; in experiment [3], 59.1 µM; in experiment [4], greater than 100 µM; in experiment [5], 97.2 µM; in experiment [6] it was 43.1 µM. Besides, the TGI was found to be 48.2 µM in experiment [7], 74.6 µM in experiment [8], 32.8 µM in [9] and 61.2 µM in [10].
